{"source": "patent US11026944B2", "about": "“Compositions and methods for treating insomnia” (Eisai R&D Management Co., Ltd., priority 2014, dated 2021)", "test_system": "subjects with insomnia", "assay": "201 Study: Karolinska Sleepiness Scale (next-day residual sleepiness)", "assay_type": "in vivo, human", "description": "All subjects returned to the clinic on Day-1 for Baseline Period procedures. They remained in the clinic until Day 3. Morning assessments on Day 1 provided the Baseline values for the KSS, the Digit Symbol Substitution Test (DSST), and the Reaction Time Index (RTI). Assessments at 6 hours after waketime provided the Baseline values for the Waking Function Battery (WFB), and the Profile of Mood States-Brief (POMS-B). Subjects were then randomized to receive 1 of 6 doses of compound A or placebo for the next 15 days. Study drugs were tablets containing compound A-matched placebo or compound A of 1 mg, 2.5 mg, 5 mg, or 10 mg and to be ingested 30 minutes before the median habitual bedtime calculated from their Sleep Diary responses during the Screening Period. An 8-hour PSG, starting at the same bedtime as used for the screening and Baseline PSG nights, was recorded on the first 2 treatment nights (Days 1 and 2). The Sleep Diary continued to be completed each day in the clinic, and assessments of insomnia severity (ISI), next-day residual effects (KSS, DSST, and RTI) were conducted while subjects were in the clinic. On specified study days, plasma concentrations of compound A were assessed while subjects were in the clinic in the morning after awakening and at trough just before dosing.\nThe KSS was used to measure next-day residual effects at prespecified timepoints. In this test, subjects rate their sleepiness using the KSS, a 9-point verbally anchored scale. Categories and scores range from“extremely alert” (score=1), “alert” (3), “neither alert nor sleepy” (5), “sleepy-but no difficulty remaining awake” (7), to “extremely sleepy-fighting sleep” (9). The key outcome parameter for the KSS was the score from 1 to 9.\nEach dose was assessed for next-day residual sleepiness using the KSS. A mean difference of change from baseline in KSS at 1 hour after waketime on Day 2 and Day 3 of less than 4 units was incorporated into the utility function. A dose of compound A was considered to have an acceptable KSS at Day 15 and Day 16 if the mean difference of change from baseline in KSS at 1 hour after waketime on Day 15 and Day 16 at this dose relative to placebo was less than 4 units. Operationally, acceptable KSS for Day 15 and Day 16 was defined as the […] boundary of a 90% confidence interval (CI) being less than 4 units (of the mean difference of change from baseline in KSS at 1 hour after waketime at this dose relative to placebo).\nIn Table 6, “Baseline” was defined as the time-matched value on Day 1. “LS Means Diff” refers to the differences between LS Means of Placebo and each compound A dose, “95% CI” means to 95% CI of LS Means Diff. “p-value” was analyzed using analysis of covariance (ANCOVA) with baseline as a covanate.", "key": {"[1]": {"settings": "1 hour post waketime, 1 mg nightly"}, "[2]": {"settings": "1 hour post waketime, 2.5 mg nightly"}, "[3]": {"settings": "1 hour post waketime, 5 mg nightly"}, "[4]": {"settings": "1 hour post waketime, 10 mg nightly"}, "[5]": {"settings": "1 hour post waketime, 15 mg nightly"}, "[6]": {"settings": "1 hour post waketime, 25 mg nightly"}}, "data": [{"smiles": "Cc1ncc(OC[C@@]2(c3cccc(F)c3)C[C@H]2C(=O)Nc2ccc(F)cn2)c(C)n1", "note": "[Compound A, (1R,2 S)-2-(((2,4-dimethylpyrimidin-5-yl)oxy)methyl)-2-(3-fluorophenyl)-N-(5-fluoropyridin-2-yl) cyclopropanecarboxamide]", "values": [{"measurement": "KSS vs placebo, significance", "setting": "15 min post waketime timepoints", "value": "No statistically significant differences"}, {"measurement": "Change from Baseline in KSS, Mean of Days 2 & 3: LS Means Diff vs placebo", "setting": "[1]", "value": 0.02}, {"measurement": "Change from Baseline in KSS, Mean of Days 2 & 3: Mean", "setting": "[1]", "value": "−0.2"}, {"measurement": "Change from Baseline in KSS, Mean of Days 15 & 16: LS Means Diff vs placebo", "setting": "[1]", "value": 0.51}, {"measurement": "Change from Baseline in KSS, Mean of Days 15 & 16: Mean", "setting": "[1]", "value": 0.3}, {"measurement": "Change from Baseline in KSS, Mean of Days 2 & 3: LS Means Diff vs placebo", "setting": "[2]", "value": "−0.06"}, {"measurement": "Change from Baseline in KSS, Mean of Days 2 & 3: Mean", "setting": "[2]", "value": "−0.3"}, {"measurement": "Change from Baseline in KSS, Mean of Days 15 & 16: LS Means Diff vs placebo", "setting": "[2]", "value": 0.13}, {"measurement": "Change from Baseline in KSS, Mean of Days 15 & 16: Mean", "setting": "[2]", "value": "−0.1"}, {"measurement": "Change from Baseline in KSS, Mean of Days 2 & 3: LS Means Diff vs placebo", "setting": "[3]", "value": 0.20}, {"measurement": "Change from Baseline in KSS, Mean of Days 2 & 3: Mean", "setting": "[3]", "value": "−0.1"}, {"measurement": "Change from Baseline in KSS, Mean of Days 15 & 16: LS Means Diff vs placebo", "setting": "[3]", "value": 0.43}, {"measurement": "Change from Baseline in KSS, Mean of Days 15 & 16: Mean", "setting": "[3]", "value": 0.1}, {"measurement": "Change from Baseline in KSS, Mean of Days 2 & 3: LS Means Diff vs placebo", "setting": "[4]", "value": 0.16}, {"measurement": "Change from Baseline in KSS, Mean of Days 2 & 3: Mean", "setting": "[4]", "value": 0.0}, {"measurement": "Change from Baseline in KSS, Mean of Days 15 & 16: LS Means Diff vs placebo", "setting": "[4]", "value": 0.01}, {"measurement": "Change from Baseline in KSS, Mean of Days 15 & 16: Mean", "setting": "[4]", "value": "−0.1"}, {"measurement": "Change from Baseline in KSS, Mean of Days 2 & 3: LS Means Diff vs placebo", "setting": "[5]", "value": 0.32}, {"measurement": "Change from Baseline in KSS, Mean of Days 2 & 3: Mean", "setting": "[5]", "value": 0.1}, {"measurement": "Change from Baseline in KSS, Mean of Days 15 & 16: LS Means Diff vs placebo", "setting": "[5]", "value": 0.38}, {"measurement": "Change from Baseline in KSS, Mean of Days 15 & 16: Mean", "setting": "[5]", "value": 0.1}, {"measurement": "Change from Baseline in KSS, Mean of Days 2 & 3: LS Means Diff vs placebo", "setting": "[6]", "value": 0.47}, {"measurement": "Change from Baseline in KSS, Mean of Days 2 & 3: Mean", "setting": "[6]", "value": 0.4}, {"measurement": "Change from Baseline in KSS, Mean of Days 15 & 16: LS Means Diff vs placebo", "setting": "[6]", "value": 0.68}, {"measurement": "Change from Baseline in KSS, Mean of Days 15 & 16: Mean", "setting": "[6]", "value": 0.6}, {"measurement": "KSS LS mean differences vs placebo, significance", "setting": "1 hour post waketime, Mean of Days 2/3, 1 mg to 15 mg", "value": "not statistically significant"}, {"measurement": "KSS vs placebo, significance", "setting": "2 hour post waketime, mean of Days 2/3, 15 mg and 25 mg", "value": "statistical significance"}, {"measurement": "KSS vs placebo, significance", "setting": "2 hour post waketime, mean of Days 15/16, 25 mg", "value": "statistically significant"}]}]}
